The text below walks through data of paper PMC10388363, “Novel 1,4-Dihydropyridines as Specific Binders and Activators of SIRT3 Impair Cell Viability and Clonogenicity and Downregulate Hypoxia-Induced Targets in Cancer Cells” (Journal of Medicinal Chemistry, 2023).

Data set [1] has as its system CAL-62 cells. Description: Clonogenic assay, CAL-62. It counts as cell-based. The following applies: Homo sapiens; CAL-62, 48 h, normoxia; read-out: IC50 against colonies formation. The procedure:
(§1) Afterward, the selected compounds 3a–d were assayed at 50 μM for 24 and 48 h in CAL-62 and MDA-MB-231 cells to assess their ability to impair the cell viability and colony formation in either normoxia or hypoxia-induced condition, the latter obtained by adding a 200 μM cobalt chloride solution, as described in previous reports[69] (Figure 8). Most cancer cells, mainly solid types, are known to have an altered metabolism due to hypoxia, a non-physiological level of oxygen tension, which contributes to therapy resistance by causing cellular quiescence.[70] Moreover, hypoxic cancer cells can induce several factors that lead to cell proliferation and colony formation.[71]
(§2) Cells were seeded in a 100 mm dish and, once at 80–90% confluence, treated as described in the Results and Discussion section. After 24 and 48 h, cells were collected, counted, and 500 cells plated in a 100 mm dish. After about 7 days for CAL62 and 10 days for MDA-MB-231, plates were washed with phosphate-buffered saline solution (PBS); (Merck; 79382), and clones were fixed with 4% formaldehyde solution in PBS (Merck; F8775) at room temperature for 15 min. After that, the dishes were washed with PBS, and clones stained for 5 min with 0.5% crystal violet (Merck; C0775). Finally, the plates were washed with distilled water and air-dried. After scanning each individual dish, the colonies were counted the following day.

Data set [2] is described as follows: Cell viability / cell death in healthy HaCaT cells. Format: cell-based, human. The following applies: human, HaCaT cells (healthy keratinocytes), HaCaT. The procedure: Breast cancer cell line MDA-MB-231, anaplastic thyroid cancer cell line CAL-62 and human keratinocytes HaCaT were purchased from ATCC and were cultured in RPMI 1640 medium (R0883 Sigma Aldrich-MERCK) (MDA-MB-231 and CAL-62) or DMEM medium (11965092, Gibco) supplemented with 10% fetal bovine serum (Sigma-Aldrich-MERCK, F9665), 2 mM glutamine (G7513; Sigma-Aldrich-MERCK), 100 units/mL penicillin and 0.1 mg/mL streptomycin (P0781; Sigma-Aldrich-MERCK). Adherent cells were detached by Trypsin–EDTA solution (TA049; Sigma-Aldrich-MERCK). Cells were maintained at 37 °C in humidified incubator with 5% CO2. Cells were treated with […] (CoCl2) (Merck; C8661) dissolved in distilled, sterile water for 24 h to induce hypoxia (200 μM). […] SIRT3 inhibitor 3-TYP was dissolved in DMSO and added to a final concentration of 1 μM for 24 and/or 48 h.
Cell viability was assessed by the trypan blue exclusion assay. At the end of treatments, cells were harvested and stained with 0,4% trypan blue (Merck; T8154). The cell suspension was applied to a hemocytometer and counted with phase contrast microscopy (NIKON EclipseTE2000U, Nikon Netherlands, Amsterdam, The Netherlands).

Data set [3] concerns acK68- and acK122-MnSOD in CAL-62 cells. The data set is described as follows: Western blot of MnSOD acK68 and acK122 marks in CAL-62 cells. The conditions noted are these: 50 μM, 4 h, CAL-62. It counts as cell-based. The method, then:
K68-MnSOD acetylation promotes a transformation-permissive phenotype, leading to a chemotherapy-resistant breast cancer cell model using cisplatin and doxorubicin.[68] […] The specific SIRT3 inhibitor 3-TYP was utilized as negative control.
Breast cancer cell line MDA-MB-231, anaplastic thyroid cancer cell line CAL-62 and human keratinocytes HaCaT were purchased from ATCC and were cultured in RPMI 1640 medium (R0883 Sigma Aldrich-MERCK) (MDA-MB-231 and CAL-62) or DMEM medium (11965092, Gibco) supplemented with 10% fetal bovine serum (Sigma-Aldrich-MERCK, F9665), 2 mM glutamine (G7513; Sigma-Aldrich-MERCK), 100 units/mL penicillin and 0.1 mg/mL streptomycin (P0781; Sigma-Aldrich-MERCK). Adherent cells were detached by Trypsin–EDTA solution (TA049; Sigma-Aldrich-MERCK). Cells were maintained at 37 °C in humidified incubator with 5% CO2. Cells were treated with […] (CoCl2) (Merck; C8661) dissolved in distilled, sterile water for 24 h to induce hypoxia (200 μM). […]
Treated and untreated cells were collected and centrifuged at 3000 rpm for 5 min. […] Protein concentration was determined by the Bradford assay (Bio-Rad; 500-0205). […] After three more washes in PBST, the detection of the relevant protein was assessed by enhanced chemiluminescence (Lite Ablot TURBO, Euro-Clone; EMP012001). […]
Background: A western blot detects proteins with antibodies after separation by electrophoresis.

The subject of data set [4] is MDA-MB-231 cells. Description: Clonogenic assay, MDA-MB-231. The following applies: for reduction of clonogenicity: MDA-MB-231, 50 μM, 48 h. It counts as cell-based, human. The method, then: as §1, §2

In general, IC50 refers to the midpoint of a concentration-inhibition curve. Broadly, the viability is the share of living cells, or the viability signal relative to a control.

The structures appear in SMILES notation.

Consider `CCOC(=O)C1=CN(C(=O)c2cc(OC)cc(OC)c2)C=C(C(=O)OCC)C1c1ccccc1` [Compound 3d, Diethyl 1-(3,5-dimethoxybenzoyl)-4-phenyl-1,4-dihydropyridine-3,5-dicarboxylate], for which the 50% inhibitory concentration (IC50) in data set [1] is ~2500 nM; in data set [4] (Homo sapiens, MDA-MB-231, 48 h, normoxia, read-out: IC50 against colonies formation) it was ~2200 nM. For the same compound, the viability at 24 h, 5 µM in data set [2] (5 μM, 24 h, read-out: Cell viability (%) T24) was 96.1%. Moreover, in data set [2] (5 μM, 48 h, read-out: Cell viability (%) T48), the viability at 48 h, 5 µM amounted to 83.9%. In data set [2] (10 μM, 24 h, read-out: Cell viability (%) T24), the viability at 24 h, 10 µM turned out to be 91.6%. Moreover, in data set [2] (10 μM, 48 h, read-out: Cell viability (%) T48), the viability at 48 h, 10 µM stood at 66.1%. Further, in data set [2] (25 μM, 24 h, read-out: Cell viability (%) T24), the viability at 24 h, 25 µM is 84.7%. In addition, the viability at 48 h, 25 µM in data set [2] (25 μM, 48 h, read-out: Cell viability (%) T48) is 52.7%. In addition, the “ratio acK68- or acK122-MnSOD/MnSOD” value in data set [3] is on record as “decrease”. Besides, the reduction of clonogenicity in data set [4] (hypoxia) is 95%; in data set [4] (normoxia), 86%.
